Results as given in ChEMBL document CHEMBL1201862, “PubChem BioAssay data set” (2004).
Activity calls are given as the source filed them.

How the values were obtained:
[1] = biological target: Lytic switch protein BZLF1 (Epstein-Barr virus (strain B95-8) (HHV-4) (Human herpesvirus 4), UniProt P03206); experiment: inhibition of BZLF1 ZTA DNA binding – biochemical, fluorescence polarization, Epstein-Barr virus, 1536-well, counter-screen for EBNA-1 inhibitor project, dose response (AID 2377); design: species or system human gammaherpesvirus 4;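 further: fluorescence polarization of Cy5-labelled ZRE DNA probe bound by purified Zta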
Sequence of Lytic switch protein BZLF1 (P03206 whole entry): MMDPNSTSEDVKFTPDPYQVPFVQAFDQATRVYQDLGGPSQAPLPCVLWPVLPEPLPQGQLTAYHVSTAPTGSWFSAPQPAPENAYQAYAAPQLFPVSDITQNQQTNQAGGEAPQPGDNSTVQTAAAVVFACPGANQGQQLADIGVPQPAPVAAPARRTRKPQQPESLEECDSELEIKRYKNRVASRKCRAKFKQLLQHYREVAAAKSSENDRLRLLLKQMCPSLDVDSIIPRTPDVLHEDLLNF

[2] = biological target: Epstein-Barr nuclear antigen 1 (Epstein-Barr virus (strain B95-8) (HHV-4) (Human herpesvirus 4), UniProt P03211); experiment: inhibition of EBV nuclear antigen 1 DNA binding – biochemical, fluorescence polarization, 1536-well, dose response (AID 2381); design: species or system human gammaherpesvirus 4;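 further: fluorescence polarization of a Cy5 DNA probe bound by EBNA-1 protein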
Sequence of Epstein-Barr nuclear antigen 1 (P03211 whole entry): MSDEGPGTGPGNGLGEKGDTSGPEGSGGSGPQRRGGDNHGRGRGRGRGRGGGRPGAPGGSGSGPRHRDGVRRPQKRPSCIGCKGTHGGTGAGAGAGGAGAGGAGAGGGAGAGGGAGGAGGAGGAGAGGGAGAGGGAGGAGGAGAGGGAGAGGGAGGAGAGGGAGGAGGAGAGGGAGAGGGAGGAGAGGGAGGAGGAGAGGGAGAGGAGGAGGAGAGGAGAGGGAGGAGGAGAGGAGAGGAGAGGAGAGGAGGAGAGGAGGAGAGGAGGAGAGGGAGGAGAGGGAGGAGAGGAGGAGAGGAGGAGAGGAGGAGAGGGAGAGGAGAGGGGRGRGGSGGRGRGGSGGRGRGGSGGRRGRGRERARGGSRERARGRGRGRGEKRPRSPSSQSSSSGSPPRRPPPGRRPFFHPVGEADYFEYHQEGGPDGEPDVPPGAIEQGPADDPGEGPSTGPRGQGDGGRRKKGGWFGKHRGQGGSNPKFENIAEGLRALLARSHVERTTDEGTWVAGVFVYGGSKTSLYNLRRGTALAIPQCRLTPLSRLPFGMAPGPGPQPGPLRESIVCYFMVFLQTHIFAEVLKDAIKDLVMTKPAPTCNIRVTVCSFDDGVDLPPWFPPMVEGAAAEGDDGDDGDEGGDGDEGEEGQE

[3] = biological target: T1, Bcl-2-related protein A1 (Mus musculus, UniProt Q07440); experiment: Bfl-1 binding inhibitors, SAR follow-up, biochemical, fluorescence polarization (AID 1070)
T1 sequence (Q07440 whole entry): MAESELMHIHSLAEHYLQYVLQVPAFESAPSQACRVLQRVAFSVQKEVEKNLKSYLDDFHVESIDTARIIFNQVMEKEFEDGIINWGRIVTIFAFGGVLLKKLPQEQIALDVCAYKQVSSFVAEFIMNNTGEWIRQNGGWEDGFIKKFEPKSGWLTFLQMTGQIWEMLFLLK

[4] = biological target: T1, Bcl-2-related protein A1; experiment: small-molecule antagonists of Bfl-1/BH3 interaction – biochemical, TR-FRET, mouse Bfl-1, confirmation (AID 621);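 further: TR-FRET binding of GST-Bfl-1 to FITC-labelled Bid peptide via terbium antibody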
[5] = biological target: Glyceraldehyde-3-phosphate dehydrogenase (Homo sapiens, UniProt P04406)
Sequence of Glyceraldehyde-3-phosphate dehydrogenase (P04406 whole entry): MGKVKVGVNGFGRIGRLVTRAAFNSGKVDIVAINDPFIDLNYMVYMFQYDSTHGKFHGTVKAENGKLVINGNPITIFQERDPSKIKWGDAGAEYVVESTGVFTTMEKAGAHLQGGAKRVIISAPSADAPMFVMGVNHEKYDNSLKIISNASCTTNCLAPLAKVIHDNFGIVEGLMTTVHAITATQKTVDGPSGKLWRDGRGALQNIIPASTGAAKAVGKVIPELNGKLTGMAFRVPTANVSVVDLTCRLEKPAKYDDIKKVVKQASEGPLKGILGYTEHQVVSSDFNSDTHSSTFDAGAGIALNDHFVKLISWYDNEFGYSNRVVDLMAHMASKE

[6] = biological target: T2, Coagulation factor XII (Homo sapiens, UniProt P00748); type: functional;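 further: activated factor XIIa alpha cleaving a fluorogenic AMC peptide substrate; inhibitor potency from loss of enzyme activity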
T2 sequence (P00748 whole entry): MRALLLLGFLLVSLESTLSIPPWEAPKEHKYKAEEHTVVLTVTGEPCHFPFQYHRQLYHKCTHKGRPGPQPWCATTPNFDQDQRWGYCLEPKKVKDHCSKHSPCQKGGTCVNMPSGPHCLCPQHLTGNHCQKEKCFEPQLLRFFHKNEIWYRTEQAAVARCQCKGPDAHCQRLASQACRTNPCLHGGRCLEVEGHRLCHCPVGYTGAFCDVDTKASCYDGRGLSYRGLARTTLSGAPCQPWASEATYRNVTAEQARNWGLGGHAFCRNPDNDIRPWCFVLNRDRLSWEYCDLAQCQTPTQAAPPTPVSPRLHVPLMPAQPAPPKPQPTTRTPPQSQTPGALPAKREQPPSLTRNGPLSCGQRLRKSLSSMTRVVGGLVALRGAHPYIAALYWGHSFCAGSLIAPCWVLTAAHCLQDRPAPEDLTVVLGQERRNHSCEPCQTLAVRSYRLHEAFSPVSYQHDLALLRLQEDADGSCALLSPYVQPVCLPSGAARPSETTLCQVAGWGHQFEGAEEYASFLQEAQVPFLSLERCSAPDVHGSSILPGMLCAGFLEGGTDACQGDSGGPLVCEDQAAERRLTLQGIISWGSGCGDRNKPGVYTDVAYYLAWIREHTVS

[7] = alpha-synuclein stem-loop luciferase translation blockers – H4 neuroglioma cells, luminescence, confirmation (AID 1988); type: functional, cell-based
[8] = cells; type: functional, cell-based
[9] = luciferase reporter signal suppression in cells – H4 neuroglioma cells, luminescence, dose response (AID 1990); type: functional, cell-based
[10] = Luminescence Cell-Based Dose Response HTS to Identify Inhibitors of 5'UTR Stem-Loop Driven Prion Protein mRNA Translation in H4 Neuroglioblastoma Cells. [Related pubchem assays: 1827 (Project Summary), 1813 (Primary HTS)]; type: functional
[11] = test system: Streptococcus sp. 'group A'; experiment: Streptococcus pyogenes SK(-)GAS viability under kanamycin – luminescence, BacTiterGlo, confirmation, counter-screen for streptokinase expression inhibitor project, dose response (AID 1900); type: functional, organism-based
[12] = test system: Streptococcus; experiment: GAS UMAA2166 growth inhibition – luminescence, BacTiterGlo, counter-screen for streptokinase expression inhibitor project, dose response (AID 1915); type: functional, organism-based;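 further: potency for reduction of bacterial viability or growth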
[13] = alpha-synuclein stem-loop translation blockers – luminescence, H4 neuroglioblastoma cells, dose confirmation, confirmation (AID 2454); type: functional, cell-based;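 further: H4 neuroglioblastoma cells carrying an alpha-synuclein 5'UTR luciferase reporter; potency for inhibition of the luciferase signal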
[14] = luciferase reporter signal reduction – luminescence, H4-C neuroglioblastoma cells, dose response (AID 2458); type: functional, cell-based;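 further: H4 neuroglioblastoma cells stably carrying a luciferase reporter gene fusion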
[15] = test system: HEK293; experiment: Fluorescence-based counterscreen for potentiators or agonists of NPY-Y2: cell-based high-throughput dose response assay to identify inhibitors of cyclic nucleotide gated ion channel (CNGC) activity. In this assay, the parental HEK293 cell line transfected with a cyclic-nucleotide gated ion channel (CNGC)-based cAMP sensor is used to measure inhibition of isoproterenol-induced CNGC activity by test compound.; type: functional; details: Homo sapiens;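 further: stimulus is 1 µM isoproterenol at EC100 plus PDE inhibitor Ro 20-1724 at 25 µM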
[16] = biological target: Neuropeptide Y receptor type 2 (Homo sapiens, UniProt P49146); experiment: Fluorescence-based cell-based high-throughput dose response assay for agonists of NPY-Y2. [Related pubchem assays: 1703 (Screening assay (CNGC inhibitors).), 1359 (Screening assay (NPY-Y2 potentiators or agonists).), 1304 (Screening assay (NPY-Y1 potentiators or agonists).), 1710 (Screening assay (NPY-Y2 agonists).), 1791 (Summary AID.)]; type: functional
Sequence of Neuropeptide Y receptor type 2 (P49146 whole entry): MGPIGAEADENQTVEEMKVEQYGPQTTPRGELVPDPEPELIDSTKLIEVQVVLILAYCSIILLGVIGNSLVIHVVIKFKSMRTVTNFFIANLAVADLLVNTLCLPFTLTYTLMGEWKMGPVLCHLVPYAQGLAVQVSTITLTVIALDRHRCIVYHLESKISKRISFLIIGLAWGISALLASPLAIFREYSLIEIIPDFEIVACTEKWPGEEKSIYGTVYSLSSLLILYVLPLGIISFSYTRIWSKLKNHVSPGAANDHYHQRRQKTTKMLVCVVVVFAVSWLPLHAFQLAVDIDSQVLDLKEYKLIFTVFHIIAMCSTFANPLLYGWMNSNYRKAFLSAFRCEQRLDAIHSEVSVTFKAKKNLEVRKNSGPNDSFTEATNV

[17] = biological target: Neuropeptide Y receptor type 1 (Homo sapiens, UniProt P25929); experiment: Fluorescence-based counterscreen for agonists of NPY-Y2: cell-based high-throughput dose response assay for agonists of NPY-Y1.; type: functional
Sequence of Neuropeptide Y receptor type 1 (P25929 whole entry): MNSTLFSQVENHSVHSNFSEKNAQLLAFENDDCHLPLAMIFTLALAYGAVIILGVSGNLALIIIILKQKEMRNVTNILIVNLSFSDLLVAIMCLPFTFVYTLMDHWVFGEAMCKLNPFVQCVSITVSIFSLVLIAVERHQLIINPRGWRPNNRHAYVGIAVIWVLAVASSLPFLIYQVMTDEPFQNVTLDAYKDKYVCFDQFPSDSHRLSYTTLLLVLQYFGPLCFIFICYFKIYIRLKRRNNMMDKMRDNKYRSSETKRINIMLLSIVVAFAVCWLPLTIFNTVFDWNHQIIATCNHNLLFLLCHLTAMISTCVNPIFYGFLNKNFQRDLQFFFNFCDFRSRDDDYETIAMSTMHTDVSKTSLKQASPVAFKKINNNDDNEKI

[18] = biological target: T3, Protein skinhead-1 (Caenorhabditis elegans, UniProt P34707); type: functional
T3 sequence (P34707 whole entry): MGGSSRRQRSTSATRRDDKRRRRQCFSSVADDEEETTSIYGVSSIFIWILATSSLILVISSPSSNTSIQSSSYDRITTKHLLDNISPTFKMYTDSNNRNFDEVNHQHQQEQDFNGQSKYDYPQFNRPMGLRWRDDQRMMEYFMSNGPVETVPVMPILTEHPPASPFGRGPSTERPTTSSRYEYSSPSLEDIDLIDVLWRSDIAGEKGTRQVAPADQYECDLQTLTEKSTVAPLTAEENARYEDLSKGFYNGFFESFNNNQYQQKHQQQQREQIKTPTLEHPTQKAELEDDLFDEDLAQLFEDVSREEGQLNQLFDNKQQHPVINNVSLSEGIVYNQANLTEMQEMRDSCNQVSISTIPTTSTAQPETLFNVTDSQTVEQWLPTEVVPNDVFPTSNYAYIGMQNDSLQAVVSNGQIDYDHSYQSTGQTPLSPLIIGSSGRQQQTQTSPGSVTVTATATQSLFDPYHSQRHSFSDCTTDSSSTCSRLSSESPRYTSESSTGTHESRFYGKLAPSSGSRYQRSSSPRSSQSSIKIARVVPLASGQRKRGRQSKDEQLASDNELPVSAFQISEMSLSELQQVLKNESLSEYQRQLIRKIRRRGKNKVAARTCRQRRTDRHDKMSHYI

COc1cccc(N2CCN(S(=O)(=O)c3ccc(-c4cnc(C5CC5)o4)cc3)CC2)c1
IC50 [1]: > 111 µM (not active) | IC50 [2]: 6.91 µM (active)

O=C1C(Cl)=C(Cl)C(=O)N1c1cccc(Cl)c1
IC50 [3]: 3.41 µM (active) | IC50 [4]: 5.17 µM (active) | IC50 [5]: > 100 µM (not active)

COc1ccc(C2CC(C(F)(F)F)n3nc(C(=O)Nc4ccc5c(c4)OCO5)cc3N2)cc1 (stereo not given)
IC50 [1]: > 111 µM (not active) | IC50 [2]: 9.48 µM (active) | IC50 [6]: > 50 µM (inactive)

CCc1ccc2c(c1)C1(NN=C(c3cccc4ccccc34)S1)C(=O)N2 (stereo not given)
EC50 [7]: < 0.1 µM (active) | EC50 [8]: 0.875 µM (active) | EC50 [9]: 38.5 µM (active) | EC50 [10]: < 0.1 µM (active) | EC50 [11]: < 0.06 µM (active) | EC50 [12]: 0.706 µM (active) | EC50 [13]: 2.85 µM (inconclusive) | EC50 [14]: 1.25 µM (active)

CCSc1nnc(NC(=O)CCNS(=O)(=O)c2cc(Br)cnc2N)s1
EC50 [15]: 9.32 µM (active) | EC50 [16]: 13.7 µM (not active) | EC50 [17]: 11.7 µM (not active)

CC(C)CC(NC(=O)c1ccc(Cl)cc1)C(=O)OCc1cc([N+](=O)[O-])cc2c1OCOC2 (stereo not given)
EC50 [15]: > 35.4 µM (not active) | EC50 [16]: > 35.4 µM (not active) | EC50 [17]: > 35.4 µM (not active)

Clc1ccc(-n2nnc(-c3cccnc3)n2)cc1Cl
IC50 [3]: > 100 µM (not active) | IC50 [18]: 57.3 µM (inactive) | IC50 [4]: > 100 µM (not active)
